Source: US10799474B2, “Method of treating leukemia utilizing somatic cell reprogramming” (priority 2016, dated 2020)

System: normal hematopoietic stem cells/progenitor cells
Settings: mouse, in vivo
Method: 7. Reprogramming factors have less effect on normal hematopoietic stem cells/progenitor cells: bone marrow cells and leukemic cells of OSKM mice were co-transplanted into lethally irradiated mice. After leukemia developed in the mice, Dox was added into the drinking water of the mice in experimental group for 7 days. […] It can be seen from FIG. 5A that the ratios of normal hematopoietic stem cells and progenitor cells in the mouse bone marrows were not affected after Dox treatment. […] It can be seen from FIG. 5B that the apoptosis of normal hematopoietic stem cells and progenitor cells was not affected after Dox treatment. […] It can be seen from FIGS. 5A, 5B, and 5C that the number and apoptosis of normal hematopoietic stem cells/progenitor cells were not affected and the mice in the experimental group were recovered from leukemia.

C[C@H]1c2cccc(O)c2C(=O)C2=C(O)[C@]3(O)C(=O)C(C(N)=O)=C(O)[C@@H](N(C)C)[C@@H]3[C@@H](O)[C@@H]21 [Dox, doxycycline]
apoptosis of normal hematopoietic stem cells and progenitor cells in the bone marrow: not affected
ratios of normal hematopoietic stem cells and progenitor cells in the bone marrow: not affected
